Consider five molecules from US9932572B2, “Modified Caspase polypeptides and uses thereof” (BELLICUM PHARMACEUTICALS, INC., priority 2013, dated 2018).

Series [1] relates to iCasp9-ΔCD19-transduced MSCs. The series is described as follows: In vivo killing of MSCs in SCID mouse model (qPCR). Further details: species or system SCID mice. For orientation: Real-time PCR tracks product formation cycle by cycle.
Another series concerns iCasp9-transduced MSCs. Briefly: Apoptosis studies in vitro, undifferentiated MSCs (annexin V-PE/7-AAD). The class given is cell-based, human. The settings on record: magnetically immunoselected iCasp9-CD19-positive cells after exposure to CID. Here is the method:
Undifferentiated MSCs. The chemical inducer of dimerization (CID) (AP20187; ARIAD Pharmaceuticals, Cambridge, Mass.) was added at 50 nM to iCasp9-transduced MSCs cultures in complete medium. Apoptosis was evaluated 24 hours later by FACS analysis, after cell harvest and staining with annexin V-PE and 7-AAD in annexin V binding buffer (BD Biosciences, San Diego, Calif.). Control iCasp9-transduced MSCs were maintained in culture without exposure to CID.

Series [2] deals with iCasp9M.IRES.GFPhigh-transduced CTLs. The series is described as follows: SCID mouse-human xenograft model, human CD3+/GFP+ T cells in tumors. The class given is in vivo, NOD/SCID mice. The settings on record: single dose of CID (50 μg AP20187 i.p.) vs carrier; tumors 3 days after. Here is the method:
Non-obese diabetic severe combined immunodeficient (NOD/SCID) mice, 6 to 8 weeks of age, were irradiated (250 rad) and injected subcutaneously in the right flank with 10×10^6 to 15×10^6 LCLs resuspended in Matrigel (BD Bioscience). Two weeks later mice bearing tumors that were approximately 0.5 cm in diameter were injected into the tail vein with a 1:1 mixture of nontransduced and iCasp9.I.GFPhigh-transduced EBV CTLs (total 15×10^6). At 4 to 6 hours prior and 3 days after CTL infusion, mice were injected intraperitoneally with recombinant hIL-2 (2000 U; Proleukin; Chiron). On day 4, the mice were randomly segregated in 2 groups: 1 group received CID (50 μg AP20187, intraperitoneally) and 1 group received carrier only (16.7% propanediol, 22.5% PEG400, and 1.25% Tween 80, intraperitoneally). […] By FACS analysis, the number of GFP+ cells within the gated CD3^+ population was evaluated. […]
The function of iCasp9M in vivo, is graphically illustrated in FIG. 7. […] On day 3 after CTL administration, mice received either CID (50 μg AP20187; (black diamonds, n=6) or carrier only (black squares, n=5) and on day 6 the presence of human CD3+/GFP+ T cells in the tumors was analyzed. Human CD3+ T cells isolated from the tumors of a control group of mice that received only nontransduced CTLs (15×10^6 CTLs; n=4) were used as a negative control for the analysis of CD3+/GFP+ T cells within the tumors.

Series [3] concerns gene-modified allodepleted cells. The series is described as follows: Induction of apoptosis with AP20187 in gene-modified allodepleted cells (annexin V/7-AAD). The class given is cell-based, human. As for the experimental part:
(§1) Suicide gene functionality was assessed by adding a small molecule synthetic homodimerizer, AP20187 (Ariad Pharmaceuticals; Cambridge, Mass.), at 10 nM final concentration the day following CD19 immunomagnetic selection. Cells were stained with annexin V and 7-amino-actinomycin (7-AAD)(BD Pharmingen) at 24 hours and analyzed by flow cytometry. Cells negative for both Annexin V and 7-AAD were considered viable, cells that were annexin V positive were apoptotic, and cells that were both annexin V and 7-AAD positive were necrotic. The percentage killing induced by dimerization was corrected for baseline viability as follows: Percentage killing=100%−(% Viability in AP20187-treated cells÷% Viability in non-treated cells).
Cells were maintained in T cell medium containing 50 U/ml IL-2 until 22 days after transduction. A portion of cells was reactivated on 24-well plates coated with […] OKT3 and 1 μg/ml anti-CD28 (Clone CD28.2, BD Pharmingen, San Jose, Calif.) for 48 to 72 hours. CD19 expression and suicide gene function in both reactivated and non-reactivated cells were measured on day 24 or 25 post transduction.

The test system of a further series is non-transduced cells. The series is described as follows: Viability of non-transduced cells with AP20187. The settings on record: non-transduced cells (n=6). The class given is cell-based, human. Here is the method: as §1
The target of series [4] is chimeric Caspase-9 polypeptide (Homo sapiens, UniProt P62942, F37V). The settings on record: cited from earlier work.
Sequence of chimeric Caspase-9 polypeptide (P62942 2-108 F37V limits assumed): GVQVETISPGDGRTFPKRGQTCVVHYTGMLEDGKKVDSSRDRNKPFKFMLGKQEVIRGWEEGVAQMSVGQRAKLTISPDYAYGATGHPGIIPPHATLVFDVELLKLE
For a further series, the system named is CD3+ΔCD19+ cells. The series is described as follows: CASPALLO phase 1 clinical trial, AP1903 in patients with GvHD after iCasp9+ T cells. The settings on record: after AP1903 administration. The class given is in vivo, human. From the text:
Three patients received iCasp9+ T cells after haplo-CD34^+ stem cell transplantation (SCT), at dose levels between about 1×10^6 to about 3×10^6 cells/kg.

For series [5] the following is noted: cited from earlier work.
Another series concerns HEK293T/16 cells. Briefly: Secreted alkaline phosphatase (SEAP) reporter-based surrogate killing assay. The settings on record: for relative SEAP activity Units (basal activity): no AP1903, higher SEAP = lower basal activity; for basal signaling: compared to iCasp9 WT; for cost of higher IC50 to AP1903: versus unmodified iCasp9. The class given is cell-based, human. As for the experimental part:
FIG. 45 provides an analysis of SEAP assays. To examine both basal signaling and AP1903-induced activity, 10^6 early-passage HEK293T/16 cells were co-transfected with various amounts of plasmids expressing Caspase-9 mutants along with 500 ng of SEAP reporter plasmid, used as a surrogate marker for cell viability. […] of the mixture was seeded onto each well of a 96-well plate. […] For the assay, 4-MUP was hydrolyzed by SEAP to 4-methylumbelliferon, a metabolite that can be excited at 364 nm and detected at an emission of 448 nm. Because SEAP is used as a marker for cell viability, reduced SEAP readings correspond with increased iCaspase-9 activities.
Early passage HEK293T/16 (ATCC, Manassas, Va.) was maintained in IMDM, GlutaMAX™ (Life Technologies, Carlsbad, Calif.) supplemented with 10% FBS, 100 U/mL penicillin, and 100 U/mL streptomycin until transfection in a humidified, 37° C., 5% CO2/95% air atmosphere. Cells in logarithmic-phase growth were transiently transfected with 800 ng to 2 μg of expression plasmid encoding iCasp9 mutants and 500 ng of an expression plasmid encoding SRα promoter driven SEAP per million cells in 15-mL conical tubes. […] GeneJammer® Transfection Reagent at a ratio of 3 μl per ug of plasmid DNA was used to transiently transfect HEK293T/16 in the absence of antibiotics. 100 μl or 2 mL of the transfection mixture was added to each well in 96-well or 6-well plate, respectively.
Briefly, after 65° C. heat denaturation for 45 minutes to reduce background caused by endogenous (and serum-derived) alkaline phosphatases that are sensitive to heat, 5 μl of supernatants was added to 95 μl of PBS and added to 100 μl of substrate buffer, containing 1 μl of 100 mM 4-methylumbelliferyl phosphate (4-MUP; Sigma, St. Louis, Mo.) re-suspended in 2 M diethanolamine. Hydrolysis of 4-MUP by SEAP produces a fluorescent […] with excitation/emission (355/460 nm), which can be easily measured. Assays were performed in black opaque 96-well plates to minimize fluorescence leakage between wells (FIG. 45).

[6] abbreviates: 10 nM, 24 hours, day after immunomagnetic selection.

Where a chain is given by its changes, count along the chain named. Names and notes keep the numbering of the source. Read-outs that look alike come from different tables or passages of the source.

Take `CC[C@H](C(=O)N1CCCC[C@H]1C(=O)O[C@H](CCc1ccc(OC)c(OC)c1)c1cccc(OCC(=O)NCC(CNC(=O)COc2cccc([C@@H](CCc3ccc(OC)c(OC)c3)OC(=O)[C@@H]3CCCCN3C(=O)[C@@H](CC)c3cc(OC)c(OC)c(OC)c3)c2)CN(C)C)c1)c1cc(OC)c(OC)c(OC)c1` [AP20187]: the “proportion of surviving iCasp9-positive cells, % of the original population” value in series [1] was found to be 0.7%. Further, the “selected cells become apoptotic” value with iCasp9-transduced MSCs is “More than 95%”. For the same molecule, the “reduction in the number of human CD3+/GFP+ T cells” value in series [2] is on record as above 99%. Further, in series [3] (setting [6]), the “AP20187-treated cells remained viable” value is “about 5.5%” and the “Killing efficiency after correction for baseline viability” value is recorded as “about 92.9%”. Besides, in [3] (reactivated, CD25 positive cells), the killing efficiency result is recorded as “about 93%”. In addition, the “viability with AP20187” value in the series with non-transduced cells was “about 86%”.
Turning to `CC[C@H](C(=O)N1CCCC[C@H]1C(=O)O[C@H](CCc1ccc(OC)c(OC)c1)c1cccc(OCC(=O)NCCNC(=O)COc2cccc([C@@H](CCc3ccc(OC)c(OC)c3)OC(=O)[C@@H]3CCCCN3C(=O)[C@@H](CC)c3cc(OC)c(OC)c(OC)c3)c2)c1)c1cc(OC)c(OC)c(OC)c1` (relative stereo) [AP1903, 2-Piperidinecarboxylic acid, 1-[(2S)-1-oxo-2-(3,4,5-trimethoxyphenyl)butyl]-, 1,2-ethanediylbis[imino(2-oxo-2,1-ethanediyl)oxy-3,1-phenylene[(1R)-3-(3,4-dimethoxyphenyl)propylidene]] ester, [2S-[1(R*),2R*[S*[S*[1(R*),2R*]]]]]-(9CI)], the “amount of AP1903 needed in vitro for effective signaling of cells” value in [4] is 10 to 100 nM. Further, the “resolution of skin and liver aGvHD” value in the series on CD3+ΔCD19+ cells was at most 24 h. Besides, in series [5] (0.01 mg/kg to 1.0 mg/kg dose range, healthy volunteers, listed as API903), the “safety / adverse effects in Phase I study” value is reported as “No serious adverse events”. The “plasma levels, % of maximal concentration” value in [5] (2 hours post-dose) is on record as around 7%; in series [5] (10 hours post-dose), around 1%. Besides, the Doses well-tolerated entry in series [5] (Phase I study) is on record as “up to 1 mg/kg”.

B1: N405Q: chimeric modified Caspase-9 polypeptide, SEQ ID NO: 26 (protein)
chain: GFGDVGALESLRGNADLAYILSMEPCGHCLIINNVNFCRESGLRTRTGSNIDCEKLRRRFSSLHFMVEVKGDLTAKKMVLALLELARQDHGALDCCVVVILSHGCQASHLQFPGAVYGTDGCPVSVEKIVNIFNGTSCPSLGGKPKLFFIQACGGEQKDHGFEVASTSPEDESPGSNPEPDATPFQEGLRTFDQLDAISSLPTPSDIFVSYSTFPGFVSWRDPKSGSWYVETLDDIFEQWAHSEDLQSLLLRVANAVSVKGIYKQMPGCFQFLRKKLFFKTS
Regarding B1, the “relative SEAP activity Units (basal activity)” value (from here on “relative SEAP activity Units”) in the series with HEK293T/16 cells (1 μg iCasp9 per million cells) is given as 179081 relative SEAP activity Units. The “relative SEAP activity Units” value with HEK293T/16 cells (2 μg iCasp9 per million cells) was 175529 relative SEAP activity Units. For the same molecule, in the series with HEK293T/16 cells, the basal signaling entry is “lower basal signaling” and the “cost of higher IC50 to AP1903” value is below 10 fold.

B2: D330A-N405Q: chimeric modified Caspase-9 polypeptide, double mutant, SEQ ID NO: 28 (protein)
chain: B1 chain with D196A
In the case of B2, the “relative SEAP activity Units” value in the series on HEK293T/16 cells (1 μg iCasp9 per million cells) was 205772 relative SEAP activity Units; in the series with HEK293T/16 cells (2 μg iCasp9 per million cells) it was 174366 relative SEAP activity Units. Further, in the series on HEK293T/16 cells, the basal signaling result was “lower basal signaling”.

B3: D330A: chimeric modified Caspase-9 polypeptide, SEQ ID NO: 24 (protein)
chain: B1 chain with D196A, Q271N
For B3, the “relative SEAP activity Units” value in the series on HEK293T/16 cells (1 μg iCasp9 per million cells) was 148928 relative SEAP activity Units. For the same molecule, the “relative SEAP activity Units” value in the series on HEK293T/16 cells (2 μg iCasp9 per million cells) was 136863 relative SEAP activity Units. Besides, in the series on HEK293T/16 cells, the basal signaling result was “lower basal signaling” and the “cost of higher IC50 to AP1903” value was below 5 fold.
